Assay results: article PMC6630832, “3-Vinylazetidin-2-Ones: Synthesis, Antiproliferative and Tubulin Destabilizing Activity in MCF-7 and MDA-MB-231 Breast Cancer Cells” (Pharmaceuticals, 2019)
pIC50: −log10 of the molar value. Read-outs that look alike come from different tables or passages of the source.

Legend:
MCF-7 cells [1] = assay: Annexin V/PI apoptotic assay; details: for apoptotic cells (annexin-V positive): MCF-7, 72 h
Protocol: Apoptotic cell death was detected by flow cytometry using Annexin V and propidium iodide (PI). […] Cells were then harvested and prepared for flow cytometric analysis. Cells were washed in 1X binding buffer (20X binding buffer: 0.1M HEPES, pH 7.4; 1.4 M NaCl; 25 mM CaCl2 diluted in dH2O) and incubated in the dark for 30 min on ice in Annexin V-containing binding buffer [1:100]. Cells were then washed once in binding buffer and then re-suspended in PI-containing binding buffer [1:1000]. […] Four populations are produced during the assay Annexin V and PI negative (Q4, healthy cells), Annexin V positive and PI negative (Q3, early apoptosis), Annexin V and PI positive (Q2, late apoptosis) and Annexin V negative and PI positive (Q1, necrosis). Paclitaxel was used as a positive control for cell death

Hs578Ts(i)8 cells = assay: Antiproliferative activity in invasive Hs578Ts(i)8 cells; format: cell-based; details: invasive Hs578Ts(i)8 cells; read-out: IC50
K562 = assay: Antiproliferative activity in K562 leukemia cells; format: cell-based; details: Homo sapiens
[2] = test system: Hs578T breast cancer cell line; assay: Antiproliferative activity in Hs578T cells; format: cell-based; details: Homo sapiens, Hs-578T; triple-negative Hs578T cells; read-out: IC50
MCF-7 cells [3] = assay: Cell cycle analysis (PI flow cytometry); format: cell-based, human; details: for apoptotic cells (sub-G0G1): 72 h
Protocol: MCF-7 cells (adherent and detached) were treated with the appropriate concentration of compound 7s and incubated for the designated time. Cells were collected, trypsinised and centrifuged at 800× g for 15 min. Cells were washed twice with ice-cold PBS and fixed in ice-cold 70% ethanol overnight at −20 °C. Fixed cells were centrifuged at 800× g for 15 min and stained with 50 μg/mL of PI, containing 50 μg/mL of DNase-free RNase A, at 37 °C for 30 min.

[4] = test system: normal murine mammary epithelial cells; assay: Cytotoxicity assay in primary murine mammary epithelial cells (alamar blue); format: cell-based, mouse; details: for pIC50: Mus musculus, Epithelial cell, alamar blue; for pIC50 / % Viable cells at IC50: 72 h; for % Viable cells at IC50: at the compound's IC50 in MCF-7 cells, 25,000 cells/mL
Protocol: (§1) As previously reported mammary glands from 14–18 day pregnant CD-1 mice were used as source and primary mammary epithelial cell cultures were prepared from these. The isolated mammary epithelial cells were seeded at two concentrations (25,000 cells/mL and 50,000 cells/mL). […] After 24 h, the cells were treated with 2 µL volumes of test compound 7s which had been pre-prepared as stock solutions in ethanol to furnish the concentration range of study, 1 nM–100 µM, and re-incubated for a further 72 h. Control wells contained the equivalent volume of the vehicle ethanol (1% v/v). The cytotoxicity was assessed using alamar blue dye.

[5] = as above; format: cell-based, mouse; details: female, CD-1, mouse, primary mammary epithelial cells, 72 h; for viability at 72 h, 10 μM: murine epithelial cells, read-out: % Viable cells; for viability at 72 h: at the compound's IC50 in MCF-7 cells, read-out: % Viable cells at IC50
Protocol: as §1

[6] = test system: microtubule network of MCF-7 cells; assay: Immunofluorescence microscopy; format: cell-based, human; details: 100 nM, 16 h
Protocol: Confocal microscopy was used to study the effects of drug treatment on MCF-7 cytoskeleton. For immunofluorescence, MCF-7 cells were seeded at 1 × 10^5 cells/mL on eight chamber glass slides (BD Biosciences, 2350 Qume Dr, San Jose, CA, USA). Cells were either untreated or treated with vehicle [1% ethanol (v/v)], paclitaxel (1 μM), combretastatin A-4 (100 nM) or compound 7s (100 nM) for 16 h. Following treatment cells were gently washed in PBS, fixed for 20 min with 4% paraformaldehyde in PBS and permeabilised in 0.5% Triton X-100. Following washes in PBS containing 0.1% Tween (PBST), cells were blocked in 5% bovine serum albumin diluted in PBST. Cells were then incubated with mouse monoclonal anti-α-tubulin−FITC antibody (clone DM1A) (Sigma-Aldrich, 2033 Westport Center Dr, St. Louis, MO, USA) (1:100) for 2 h at room temperature. Following washes in PBST, cells were incubated with Alexa Fluor 488 dye (1:450) for 1 h at room temperature. Following washes in PBST, the cells were mounted in Ultra Cruz Mounting Media (Santa Cruz Biotechnology Inc., 10410 Finnell Street, Dallas, TX, USA) containing 4,6-diamino-2-phenolindol dihydrochloride (DAPI). Images were captured by Leica SP8 confocal microscopy with Leica application suite X software (Leica Microsystems CMS GmbH Am Friedensplatz 3 D-68165 Mannheim, Germany). All images in each experiment were collected on the same day using identical parameters. Experiments were performed on three independent occasions.

LOX IMVI = assay: NCI60 screen (SRB), Melanoma; format: cell-based; details: Homo sapiens; NCI60 Melanoma cell line LOX IMVI; read-out: GI50
NCI/ADR-RES = assay: NCI60 screen (SRB), Ovarian cancer; format: cell-based; details: Homo sapiens; NCI60 Ovarian cancer cell line NCI/ADR-RES; read-out: GI50
MDA-MB-231/ATCC = assay: NCI60 screen (SRB), Breast cancer; format: cell-based, human; details: Homo sapiens; for GI50: NCI60 Breast cancer cell line MDA-MB-231/ATCC, read-out: GI50
SK-OV-3 = assay: NCI60 screen (SRB), Ovarian cancer; format: cell-based; details: Homo sapiens; NCI60 Ovarian cancer cell line SK-OV-3; read-out: GI50
CAKI-1 = assay: NCI60 screen (SRB), Renal cancer; format: cell-based; details: Homo sapiens; NCI60 Renal cancer cell line CAKI-1; read-out: GI50
SN12C = assay: NCI60 screen (SRB), Renal cancer; format: cell-based; details: Homo sapiens; NCI60 Renal cancer cell line SN12C; read-out: GI50
SK-MEL-5 = assay: NCI60 screen (SRB), Melanoma; format: cell-based; details: Homo sapiens; NCI60 Melanoma cell line SK-MEL-5; read-out: GI50
UO-31 = assay: NCI60 screen (SRB), Renal cancer; format: cell-based; details: Homo sapiens; NCI60 Renal cancer cell line UO-31; read-out: GI50
TK-10 = assay: NCI60 screen (SRB), Renal cancer; format: cell-based; details: Homo sapiens; NCI60 Renal cancer cell line TK-10; read-out: GI50
SNB-19 = assay: NCI60 screen (SRB), CNS Cancer; format: cell-based; details: Homo sapiens; NCI60 CNS Cancer cell line SNB-19; read-out: GI50
SF539 = assay: NCI60 screen (SRB), CNS Cancer; format: cell-based; details: Homo sapiens, SF-539; NCI60 CNS Cancer cell line SF539; read-out: GI50
K-562 = assay: NCI60 screen (SRB), Leukemia; format: cell-based; details: Homo sapiens, K562; NCI60 Leukemia cell line K-562; read-out: GI50
[7] = Homo sapiens, MCF7, 72 h, read-out: Viable

In the case of COc1ccc(/C=C\c2cc(OC)c(OC)c(OC)c2)cc1O [CA-4, Combretastatin A-4, reference compound], the viability at 0.05 µM (MCF-7 cells [1]; [7]) was 61.8%, the “apoptotic cells (annexin-V positive)” value (MCF-7 cells [1]; 50 nM) was 34.6% and the pIC50 (Hs578Ts(i)8 cells) was 7.70. For the same compound, the pIC50 (K562) was 8.40, the pIC50 [2] was 8.10 and the “cells in G2M arrest” value (MCF-7 cells [3]; 100 nM, 48 h) was 52%. For the same compound, the sub-G0G1 population (MCF-7 cells [3]; 100 nM, 48 h) was 9.4%, the pIC50 [4] was under 5.00 and the “% Viable cells at IC50” value [4] was 73.6%. The viability at 72 h, 10 μM ([5]; 10 μM, 25,000 cells/mL) was 58%, the viability at 72 h, 10 μM ([5]; 10 μM, 50,000 cells/mL) was 75% and the viability at 72 h ([5]; 25,000 cells/mL) was 74%. The viability at 72 h ([5]; 50,000 cells/mL) was 92.1% and the “effect on microtubule network” value [6] was “complete loss of microtubule formation”.
C=CC1C(=O)N(c2cc(OC)c(OC)c(OC)c2)C1c1ccc(OC)c(O)c1 (stereo not drawn) [Compound 7s, 4-[3-Hydroxy-4-methoxyphenyl]-1-(3,4,5-trimethoxyphenyl)-3-vinylazetidin-2-one] showed a GI50 (LOX IMVI) of under 0.01 µM, a viability at 0.01 µM (MCF-7 cells [1]; [7]) of 82.8% and a viability at 0.1 µM (MCF-7 cells [1]; [7]) of 64.5%. For the same compound, the “apoptotic cells (annexin-V positive)” value (MCF-7 cells [1]; 10 nM) was “About 13.6%”, the “apoptotic cells (annexin-V positive)” value (MCF-7 cells [1]; 100 nM) was 31.9% and the GI50 (NCI/ADR-RES) was under 0.01 µM. It also gave a pIC50 (MDA-MB-231/ATCC; MDA-MB-231, value from NCI (footnote b), read-out: Antiproliferative Activity IC50) of 8.00, a GI50 (MDA-MB-231/ATCC) of under 0.01 µM and a pIC50 (K562) of 7.59. For the same compound, the GI50 (SK-OV-3) was 0.0105 µM, the GI50 (CAKI-1) was 0.0402 µM and the “cells in G2M arrest” value (MCF-7 cells [3]; 10 nM, 24 h) was 64%. For the same compound, the “apoptotic cells (sub-G0G1)” value (MCF-7 cells [3]; 10 nM) was 14%, the “cells in G2M arrest” value (MCF-7 cells [3]; 100 nM, 24 h) was 82% and the “apoptotic cells (sub-G0G1)” value (MCF-7 cells [3]; 100 nM) was 26%. The “cytotoxicity against murine mammary epithelial cells” value [4] was “minimal cytotoxicity”, the pIC50 [4] was under 5.00 and the “% Viable cells at IC50” value [4] was 93.1%. For the same compound, the viability at 72 h, 10 μM ([5]; 10 μM, 25,000 cells/mL) was 60%, the viability at 72 h, 10 μM ([5]; 10 μM, 50,000 cells/mL) was 73.3% and the viability at 72 h ([5]; 25,000 cells/mL) was 93%. It also gave a viability at 72 h ([5]; 50,000 cells/mL) of over 90%, a GI50 (SN12C) of under 0.01 µM and a GI50 (SK-MEL-5) of under 0.01 µM. The GI50 (UO-31) was 0.0111 µM, the GI50 (TK-10) was 0.0102 µM and the “effect on microtubule network” value [6] was “complete loss of microtubule formation”. The GI50 (SNB-19) was 0.0405 µM.
For CCC1C(=O)N(c2cc(OC)c(OC)c(OC)c2)C1c1ccc(OC)c(OP(=O)(O)O)c1 (stereo not drawn) [Compound 17c, 5-(3-Ethyl-1-(3,4,5-trimethoxyphenyl)-4-oxoazetidin-2-yl)-2-methoxyphenyl dihydrogen phosphate], the GI50 (LOX IMVI) was 0.0241 µM, the GI50 (NCI/ADR-RES) was 0.0191 µM and the GI50 (MDA-MB-231/ATCC) was 0.031 µM. It also gave a GI50 (SF539) of 0.0162 µM, a GI50 (SK-OV-3) of 0.0341 µM and a GI50 (CAKI-1) of 0.0352 µM. For the same compound, the GI50 (SN12C) was 0.0548 µM, the GI50 (K-562) was 0.035 µM and the GI50 (SK-MEL-5) was 0.019 µM. For the same compound, the GI50 (UO-31) was 0.0426 µM, the GI50 (TK-10) was 0.0736 µM and the GI50 (SNB-19) was 0.0639 µM.
